Several values for one entry are separate records, joined by “and”; a condition that tells them apart may be missing. Identical values can stand only once. ± gives the expanded uncertainty stated by the source.
Test: molar heat capacity at constant volume
Conditions: Fluid (supercritical or subcritical phases), Vacuum adiabatic calorimetry

CCC(C)O (stereo unspecified) [butan-2-ol]
Conditions	molar heat capacity at constant volume
375.31 K, Mass density=735.98 kg/m3	219.47 ± 2.2 J/K/mol
375.53 K, Mass density=735.98 kg/m3	217.99 ± 2.2 J/K/mol
375.75 K, Mass density=735.98 kg/m3	218.29 ± 2.2 J/K/mol
375.97 K, Mass density=735.98 kg/m3	219.25 ± 2.2 J/K/mol
376.19 K, Mass density=735.98 kg/m3	217.99 ± 2.2 J/K/mol
376.42 K, Mass density=735.98 kg/m3	219.47 ± 2.2 J/K/mol
376.64 K, Mass density=735.98 kg/m3	218.29 ± 2.2 J/K/mol
376.86 K, Mass density=735.98 kg/m3	219.47 ± 2.2 J/K/mol
377.08 K, Mass density=735.98 kg/m3	217.77 ± 2.2 J/K/mol
377.3 K, Mass density=735.98 kg/m3	219.55 ± 2.2 J/K/mol
377.52 K, Mass density=735.98 kg/m3	219.33 ± 2.2 J/K/mol
407.02 K, Mass density=683.53 kg/m3	273.88 ± 2.7 J/K/mol
407.23 K, Mass density=683.53 kg/m3	278.47 ± 2.8 J/K/mol
407.44 K, Mass density=683.53 kg/m3	275.51 ± 2.7 J/K/mol
407.65 K, Mass density=683.53 kg/m3	274.18 ± 2.7 J/K/mol
407.86 K, Mass density=683.53 kg/m3	273.95 ± 2.8 J/K/mol
408.07 K, Mass density=683.53 kg/m3	279.22 ± 2.8 J/K/mol
408.28 K, Mass density=683.53 kg/m3	277.29 ± 2.8 J/K/mol
408.49 K, Mass density=683.53 kg/m3	260.39 ± 2.7 J/K/mol
408.7 K, Mass density=683.53 kg/m3	246.01 ± 2.5 J/K/mol
408.91 K, Mass density=683.53 kg/m3	240.23 ± 2.5 J/K/mol
409.12 K, Mass density=683.53 kg/m3	236.6 ± 2.4 J/K/mol
409.33 K, Mass density=683.53 kg/m3	234.08 ± 2.4 J/K/mol
409.54 K, Mass density=683.53 kg/m3	232.22 ± 2.4 J/K/mol
409.75 K, Mass density=683.53 kg/m3	224.59 ± 2.3 J/K/mol
409.96 K, Mass density=683.53 kg/m3	223.4 ± 2.3 J/K/mol
410.17 K, Mass density=683.53 kg/m3	224.22 ± 2.3 J/K/mol
410.38 K, Mass density=683.53 kg/m3	222.66 ± 2.2 J/K/mol
413.11 K, Mass density=648.53 kg/m3	272.62 ± 2.7 J/K/mol
413.31 K, Mass density=648.53 kg/m3	273.21 ± 2.7 J/K/mol
413.52 K, Mass density=648.53 kg/m3	273.66 ± 2.7 J/K/mol
413.73 K, Mass density=648.53 kg/m3	273.51 ± 2.7 J/K/mol
413.94 K, Mass density=648.53 kg/m3	272.62 ± 2.7 J/K/mol
414.15 K, Mass density=648.53 kg/m3	272.84 ± 2.7 J/K/mol
414.78 K, Mass density=683.53 kg/m3	226.66 ± 2.3 J/K/mol
414.99 K, Mass density=683.53 kg/m3	226.89 ± 2.3 J/K/mol
415.19 K, Mass density=683.53 kg/m3	227.55 ± 2.3 J/K/mol and 227.85 ± 2.3 J/K/mol
419.77 K, Mass density=683.53 kg/m3	228.67 ± 2.3 J/K/mol
419.97 K, Mass density=683.53 kg/m3	227.55 ± 2.3 J/K/mol
420.6 K, Mass density=683.53 kg/m3	230.59 ± 2.3 J/K/mol
421.42 K, Mass density=683.53 kg/m3	231.85 ± 2.4 J/K/mol
421.63 K, Mass density=683.53 kg/m3	230 ± 2.3 J/K/mol
422.25 K, Mass density=683.53 kg/m3	230.81 ± 2.3 J/K/mol
422.46 K, Mass density=683.53 kg/m3	231.11 ± 2.3 J/K/mol
422.66 K, Mass density=683.53 kg/m3	231.85 ± 2.4 J/K/mol
422.87 K, Mass density=683.53 kg/m3	231.33 ± 2.3 J/K/mol
423.08 K, Mass density=683.53 kg/m3	231.41 ± 2.3 J/K/mol
423.28 K, Mass density=683.53 kg/m3	230.81 ± 2.3 J/K/mol
423.49 K, Mass density=683.53 kg/m3	231.48 ± 2.4 J/K/mol
423.69 K, Mass density=683.53 kg/m3	231.93 ± 2.4 J/K/mol
424.31 K, Mass density=683.53 kg/m3	231.11 ± 2.3 J/K/mol
424.52 K, Mass density=683.53 kg/m3	230.52 ± 2.3 J/K/mol
424.72 K, Mass density=683.53 kg/m3	230.81 ± 2.3 J/K/mol
424.93 K, Mass density=683.53 kg/m3	230.44 ± 2.3 J/K/mol
425.14 K, Mass density=683.53 kg/m3	231.33 ± 2.3 J/K/mol
425.75 K, Mass density=683.53 kg/m3	231.19 ± 2.3 J/K/mol
425.96 K, Mass density=683.53 kg/m3	230.89 ± 2.3 J/K/mol and 228.44 ± 2.3 J/K/mol
426.16 K, Mass density=683.53 kg/m3	227.48 ± 2.3 J/K/mol
426.37 K, Mass density=683.53 kg/m3	226.74 ± 2.3 J/K/mol
426.58 K, Mass density=683.53 kg/m3	227.41 ± 2.3 J/K/mol
426.78 K, Mass density=683.53 kg/m3	227.03 ± 2.3 J/K/mol
426.99 K, Mass density=683.53 kg/m3	227.48 ± 2.3 J/K/mol
431.29 K, Mass density=648.53 kg/m3	278.03 ± 2.8 J/K/mol
431.49 K, Mass density=648.53 kg/m3	279.14 ± 2.8 J/K/mol
431.7 K, Mass density=648.53 kg/m3	277.66 ± 2.8 J/K/mol
431.9 K, Mass density=648.53 kg/m3	277.88 ± 2.8 J/K/mol
432.31 K, Mass density=648.53 kg/m3	278.77 ± 2.8 J/K/mol
432.51 K, Mass density=648.53 kg/m3	277.14 ± 2.8 J/K/mol
432.72 K, Mass density=648.53 kg/m3	277.44 ± 2.9 J/K/mol
432.92 K, Mass density=648.53 kg/m3	279.22 ± 2.9 J/K/mol
432.92 K, Mass density=683.53 kg/m3	227.18 ± 2.3 J/K/mol
433.12 K, Mass density=648.53 kg/m3	278.55 ± 2.9 J/K/mol
433.12 K, Mass density=683.53 kg/m3	228 ± 2.3 J/K/mol
433.33 K, Mass density=648.53 kg/m3	272.99 ± 2.8 J/K/mol
433.33 K, Mass density=683.53 kg/m3	227.63 ± 2.3 J/K/mol
433.53 K, Mass density=648.53 kg/m3	225.03 ± 2.4 J/K/mol
433.53 K, Mass density=683.53 kg/m3	227.78 ± 2.3 J/K/mol
433.73 K, Mass density=648.53 kg/m3	224.81 ± 2.4 J/K/mol
433.73 K, Mass density=683.53 kg/m3	228.29 ± 2.3 J/K/mol
433.94 K, Mass density=648.53 kg/m3	222.29 ± 2.4 J/K/mol
434.14 K, Mass density=648.53 kg/m3	223.48 ± 2.4 J/K/mol
434.55 K, Mass density=648.53 kg/m3	221.92 ± 2.2 J/K/mol
434.75 K, Mass density=648.53 kg/m3	221.25 ± 2.2 J/K/mol
434.96 K, Mass density=648.53 kg/m3	222.96 ± 2.2 J/K/mol
435.16 K, Mass density=648.53 kg/m3	222.74 ± 2.2 J/K/mol
435.36 K, Mass density=648.53 kg/m3	222.88 ± 2.2 J/K/mol
449.87 K, Mass density=598.18 kg/m3	278.18 ± 2.8 J/K/mol
450.07 K, Mass density=598.18 kg/m3	277.14 ± 2.8 J/K/mol
450.27 K, Mass density=598.18 kg/m3	279.22 ± 2.8 J/K/mol
450.47 K, Mass density=598.18 kg/m3	276.18 ± 2.8 J/K/mol
450.66 K, Mass density=598.18 kg/m3	277.36 ± 2.8 J/K/mol
457.62 K, Mass density=648.53 kg/m3	222.14 ± 2.2 J/K/mol
457.82 K, Mass density=598.18 kg/m3	274.62 ± 2.7 J/K/mol
457.82 K, Mass density=648.53 kg/m3	221.85 ± 2.2 J/K/mol
458.02 K, Mass density=598.18 kg/m3	274.4 ± 2.7 J/K/mol
458.02 K, Mass density=648.53 kg/m3	222.88 ± 2.2 J/K/mol
458.22 K, Mass density=598.18 kg/m3	277.66 ± 2.8 J/K/mol
458.22 K, Mass density=648.53 kg/m3	224.51 ± 2.3 J/K/mol
458.41 K, Mass density=598.18 kg/m3	277.29 ± 2.8 J/K/mol
458.41 K, Mass density=648.53 kg/m3	223.62 ± 2.2 J/K/mol
458.61 K, Mass density=598.18 kg/m3	278.85 ± 2.8 J/K/mol
458.81 K, Mass density=598.18 kg/m3	277.59 ± 2.8 J/K/mol
459.01 K, Mass density=598.18 kg/m3	279.44 ± 2.8 J/K/mol
462.16 K, Mass density=598.18 kg/m3	275.88 ± 2.8 J/K/mol
462.36 K, Mass density=598.18 kg/m3	274.69 ± 2.7 J/K/mol
462.56 K, Mass density=598.18 kg/m3	273.58 ± 2.7 J/K/mol
